Results on 15 compounds are retold here after patent US4355170A, “1-Substituted imidazole derivatives” (Ono Pharmaceutical Co., Ltd., priority 1978, dated 1982).

A word on the LD50: it is the dose expected to kill half of the subjects tested. What is called IC50 is the concentration at which inhibition is half-maximal. A lower IC50 goes with higher potency.

The structures appear in SMILES notation. Where a name gives a salt, the structure may show the parent alone.

System in the first data set: not listed separately
Nature of the data set: acute toxicity test, LD50 in mice. To be noted: mouse, in vivo, iv.
In turn, `CC(CCCCCn1ccnc1)C(C)C(=O)O.Cl` (stereo not shown) [1-(7-carboxy-6-methyloctyl)imidazole hydrochloride] showed an LD50 of 330 mg/kg.

Another data set addresses T1, thromboxane synthetase from rabbit platelet microsomes (Oryctolagus cuniculus, UniProt G1TAZ9).
T1 construct: thromboxane synthetase from rabbit platelet microsomes; from tissue; host or cells: rabbit platelet microsomes
T1 sequence (G1TAZ9 1-530): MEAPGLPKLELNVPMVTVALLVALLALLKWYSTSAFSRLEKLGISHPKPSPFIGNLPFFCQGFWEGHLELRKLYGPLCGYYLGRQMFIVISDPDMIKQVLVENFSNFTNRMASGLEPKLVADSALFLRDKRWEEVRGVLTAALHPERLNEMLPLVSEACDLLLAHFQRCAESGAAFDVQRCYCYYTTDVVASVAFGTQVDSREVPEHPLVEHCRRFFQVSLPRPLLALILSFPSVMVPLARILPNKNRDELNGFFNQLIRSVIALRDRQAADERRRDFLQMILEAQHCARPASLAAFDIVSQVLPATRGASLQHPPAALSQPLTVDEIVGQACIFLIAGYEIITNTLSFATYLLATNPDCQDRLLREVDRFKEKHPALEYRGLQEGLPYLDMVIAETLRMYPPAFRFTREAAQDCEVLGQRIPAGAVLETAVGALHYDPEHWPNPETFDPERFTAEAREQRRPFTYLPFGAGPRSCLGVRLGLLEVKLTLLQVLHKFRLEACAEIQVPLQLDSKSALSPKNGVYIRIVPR
Nature of the data set: inhibition of thromboxane synthetase from rabbit platelet microsomes (conversion of prostaglandin H2 into thromboxane B2).
Settings: not given
Format: biochemical.
On to `CCCCC(CCCn1ccnc1)C(=O)OCC` (racemic) [1-[(4RS)-4-ethoxycarbonyloctyl]imidazole], for which half-maximal inhibition (IC50) required 0.13 µM.
Compound `CC(C)(CCCCn1ccnc1)CCC(=O)O` [1-(7-carboxy-5,5-dimethylheptyl)imidazole hydrochloride] had a half-maximal inhibitory concentration (IC50) of 0.071 µM.
On to `CCOC(=O)C(C)(C)CCCCCCn1ccnc1` [1-(7-ethoxycarbonyl-7-methyloctyl)imidazole], for which the midpoint of inhibition, the IC50, lay at 1 µM.
`CC(C)(CCCCCCC(=O)O)n1ccnc1` [1-(7-carboxy-1,1-dimethylheptyl)imidazole hydrochloride] came in with an IC50 of 0.09 µM.
`O=C(O)/C=C/CCCCCn1ccnc1` [(E)-1-(7-carboxy-6-heptenyl)imidazole hydrochloride] came in with a concentration for half-maximal inhibition (IC50) of 0.07 µM.
Same read-out and setting: for `CCOC(=O)/C=C/CCCCCn1ccnc1` [(E)-1-(7-ethoxycarbonyl-6-heptenyl)imidazole] the value was 2.8 µM; for `CC(CCCCCn1ccnc1)CC(=O)O` (racemic) [1-[(6RS)-7-carboxy-6-methylheptyl]imidazole hydrochloride], 0.048 µM; for `O=C(O)/C=C\CCCCCn1ccnc1` [(Z)-1-(7-carboxy-6-heptenyl)imidazole hydrochloride], 0.016 µM.
Same read-out and setting: for `O=C(O)CCCC/C=C\Cn1ccnc1` [(Z)-1-(7-carboxy-2-heptenyl)imidazole hydrochloride] the value was 0.056 µM.
Still for that read-out and setting: to `CCOC(=O)C(C)CCCCCCn1ccnc1` (racemic) [1-[(7RS)-7-ethoxycarbonyloctyl]imidazole] belongs 0.2 µM.
For the compound `CC(CCCCCCn1ccnc1)C(=O)O.Cl` (racemic) [1-[(7RS)-7-carboxyoctyl]imidazole hydrochloride], the 50% inhibitory concentration (IC50) amounted to 0.03 µM.

The test system of a further data set is thromboxane synthetase. Nature of the data set: inhibitory action for thromboxane synthetase (prior art compounds). Format: biochemical. To be noted: not completely satisfactory as a practical medication. From the text:
However, since their inhibitory action for thromboxane synthetase is weak, these compounds are hardly applicable as practically effective medicines.
On the other hand, N-(6-methoxycarbonylhexyl)imidazole has already been synthesized by P. Matthias et al, and publicly known [Monatsch Chem., 108(5), 1059(1977)].
Take `COC(=O)CCCCCCn1ccnc1` [N-(6-methoxycarbonylhexyl)imidazole]: the “inhibitory effect on thromboxane synthetase compared with imidazole or 1-methylimidazole” value is “stronger inhibitory effect”.

A further data set concerns arachidonic acid-induced sudden deaths. The data set can be described thus: inhibitory effect on arachidonic acid-induced sudden deaths of rabbits. Format: in vivo. To be noted: oral administration, 100 mg/kg animal body weight.
In the case of `Cl.O=C(O)CCCCC#CCn1ccnc1` [1-(7-carboxy-2-heptynyl)imidazole hydrochloride], the “inhibitory effect on arachidonic acid-induced sudden deaths of rabbits” value was “inhibitory effect”.
The same measure, in the same setting: to `CC(C)(CCCCCCn1ccnc1)C(=O)O.Cl` [1-(7-carboxy-7-methyloctyl)imidazole hydrochloride] belongs “inhibitory effect”.
In the case of `CC(CCCCCCn1ccnc1)C(=O)O.Cl` (racemic) [1-[(7RS)-7-carboxyoctyl]imidazole hydrochloride], the “inhibitory effect on arachidonic acid-induced sudden deaths of rabbits” value was “inhibitory effect”.
